Measurements reported in ChEMBL document CHEMBL1221250, “Modification at the acidic domain of RXR agonists has little effect on permissive RXR-heterodimer activation” (Bioorg Med Chem Lett, 2010).
Calls of active or inactive are those of the source. The calls are words filed in the database; no cut-off is given here.

Tests used:
[1] = molecular target: T1, Retinoic acid receptor alpha (Homo sapiens) (UniProt P10276); assay: Transactivation of RARalpha in human COS7 cells at 10 uM by luciferase reporter gene assay; type: cell-based; conditions: COS-7
T1 sequence (whole entry): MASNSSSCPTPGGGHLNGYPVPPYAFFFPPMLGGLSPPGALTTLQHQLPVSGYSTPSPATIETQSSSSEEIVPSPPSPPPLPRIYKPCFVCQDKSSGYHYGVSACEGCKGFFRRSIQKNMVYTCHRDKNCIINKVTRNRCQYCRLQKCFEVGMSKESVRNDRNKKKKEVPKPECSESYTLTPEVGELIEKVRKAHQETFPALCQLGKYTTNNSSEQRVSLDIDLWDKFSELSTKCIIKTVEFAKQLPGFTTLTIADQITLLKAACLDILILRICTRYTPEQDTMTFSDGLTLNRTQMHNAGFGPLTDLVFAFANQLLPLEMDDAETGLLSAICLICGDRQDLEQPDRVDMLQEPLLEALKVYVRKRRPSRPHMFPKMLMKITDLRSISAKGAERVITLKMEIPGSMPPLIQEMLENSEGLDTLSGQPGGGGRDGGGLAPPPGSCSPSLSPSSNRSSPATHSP

[2] = molecular target: T2, Retinoic acid receptor RXR-alpha (Homo sapiens, UniProt P19793); assay: Agonist activity at RXRalpha by luciferase reporter gene assay; type: functional
T2 sequence (P19793 whole entry): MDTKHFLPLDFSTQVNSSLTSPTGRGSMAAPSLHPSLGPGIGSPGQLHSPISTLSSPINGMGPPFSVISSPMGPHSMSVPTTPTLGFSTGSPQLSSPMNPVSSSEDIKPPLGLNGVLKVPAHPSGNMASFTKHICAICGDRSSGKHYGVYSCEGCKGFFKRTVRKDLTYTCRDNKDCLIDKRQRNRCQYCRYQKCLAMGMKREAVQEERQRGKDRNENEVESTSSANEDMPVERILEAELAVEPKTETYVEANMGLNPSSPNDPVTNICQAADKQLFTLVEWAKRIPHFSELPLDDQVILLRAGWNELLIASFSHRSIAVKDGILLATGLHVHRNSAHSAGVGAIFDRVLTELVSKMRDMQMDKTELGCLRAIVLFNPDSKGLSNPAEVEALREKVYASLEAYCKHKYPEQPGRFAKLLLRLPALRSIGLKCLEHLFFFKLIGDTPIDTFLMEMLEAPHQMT

[3] = molecular target: T3, Peroxisome proliferator-activated receptor gamma (Homo sapiens) (UniProt P37231); assay: Transactivation of PPARgamma
T3 sequence (whole entry): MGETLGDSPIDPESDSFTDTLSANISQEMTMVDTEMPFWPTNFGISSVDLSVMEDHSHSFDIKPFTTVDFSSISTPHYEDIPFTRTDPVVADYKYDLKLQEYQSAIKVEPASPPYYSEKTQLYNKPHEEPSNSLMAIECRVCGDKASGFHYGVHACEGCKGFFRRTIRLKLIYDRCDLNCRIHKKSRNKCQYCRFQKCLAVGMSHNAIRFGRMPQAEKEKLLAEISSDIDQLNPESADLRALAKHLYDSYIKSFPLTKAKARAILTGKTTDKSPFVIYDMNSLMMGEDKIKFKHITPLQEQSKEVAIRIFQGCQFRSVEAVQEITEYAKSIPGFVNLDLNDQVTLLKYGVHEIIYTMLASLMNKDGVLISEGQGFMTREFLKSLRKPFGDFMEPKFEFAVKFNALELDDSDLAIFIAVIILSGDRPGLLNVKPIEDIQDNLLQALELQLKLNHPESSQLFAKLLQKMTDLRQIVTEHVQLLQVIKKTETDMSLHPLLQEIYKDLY

[4] = molecular target: RXR alpha/PPAR gamma (Homo sapiens) (UniProt P37231+P19793); assay: Transactivation of PPARgamma/RXRalpha heterodimer; type: protein-complex assay
[5] = molecular target: T4, Oxysterols receptor LXR-alpha (Homo sapiens) (UniProt Q13133); assay: Transactivation of LXRalpha
T4 sequence (whole entry): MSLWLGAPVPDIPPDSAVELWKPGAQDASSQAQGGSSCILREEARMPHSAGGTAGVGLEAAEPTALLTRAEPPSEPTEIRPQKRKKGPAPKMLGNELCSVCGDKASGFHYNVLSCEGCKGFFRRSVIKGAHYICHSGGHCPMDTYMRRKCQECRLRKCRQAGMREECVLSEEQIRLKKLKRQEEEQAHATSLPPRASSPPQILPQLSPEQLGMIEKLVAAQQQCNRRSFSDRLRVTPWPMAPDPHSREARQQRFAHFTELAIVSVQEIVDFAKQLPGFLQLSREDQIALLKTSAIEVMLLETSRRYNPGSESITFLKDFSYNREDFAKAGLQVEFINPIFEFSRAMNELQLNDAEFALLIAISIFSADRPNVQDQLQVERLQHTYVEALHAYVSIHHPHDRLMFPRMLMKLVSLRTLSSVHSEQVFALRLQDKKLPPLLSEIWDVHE

[6] = molecular target: Retinoic acid receptor RXR-alpha/oxysterols receptor LXR-alpha (Homo sapiens) (UniProt P19793+Q13133); assay: Transactivation of LXRalpha/RXRalpha; type: protein-complex assay
[7] = molecular target: T5, Retinoic acid receptor RXR-alpha (Homo sapiens) (UniProt P19793); assay: Transactivation of RXRalpha in human COS7 cells at 10 uM by luciferase reporter gene assay; type: cell-based; conditions: COS-7
T5 sequence (whole entry): T2 sequence (P19793 whole entry)

Activity [1]	EC50 [2] [nM]	Activity [3]	Activity [4] [%]	Activity [5]	Activity [6] [%]	Activity [7]	Structure (SMILES)
inactive	5.28	inactive	60	inactive	60		CCN(c1ccc2c(c1)C(C)(C)CCC2(C)C)c1ccc(C(=O)O)cn1
inactive	205	inactive	40	inactive	60		CCN(c1ccc2c(c1)C(C)(C)CCC2(C)C)c1ccc(-c2nnn[nH]2)cn1
inactive		inactive	20	inactive	50		CCN(c1ccc2c(c1)C(C)(C)CCC2(C)C)c1ccc(C(=O)NO)cn1
inactive						inactive	CCN(c1ccc2c(c1)C(C)(C)CCC2(C)C)c1ccc(P(=O)(O)O)cn1
